Patent US20230076527A1, “TREATMENT OF PAROXYSMAL NOCTURNAL HEMOGLOBINURIA” (Apellis Pharmaceuticals, Inc., priority 2020, published 2023)

Legend:
Format in all cases: in vivo, human
[1] = tested on: patients with PNH; experiment: PEGASUS quality of life assessments (LASA, EORTC QLQ-C30)
Description: QoL assessments were Linear Analog Scale Assessment (LASA) and the European Organisation for Research and Treatment of Cancer Quality of Life Questionnaire-Core 30 Scale (EORTC QLQ-C30) scores. Change from baseline (CFB) to week 16 was analyzed using a mixed model for repeated measures. The LASA consists of 3 sections asking respondents to rate their perceived level of functioning and contains specific domains for activity level, ability to carry out daily activities, and overall QoL. Each section of the LASA is scored from low of 0 to high of 100 and asks patients to rate different aspects of their life over the past week; section 1 asks patients to rate their energy level, section 2 their ability to do daily activities, section 3 their overall quality of life. Scores for the 3 individual components of the scale and the combined score were included in the analysis. The EORTC contains 30 questions comprising 5 functional scale scores and individual items; it asks patients to answer 28 questions on a scale of 1 (“not at all”) to 4 (“very much”) that generally focus on the past week of their life. An additional 2 questions are rated on a scale of 1 (“very poor”) to 7 (“excellent”) for overall health and quality of life over the past week.

[2] = tested on: patients with PNH; experiment: PEGASUS 48-week efficacy results (open-label period)
Description: Day 1 to Week 16 was defined as the Randomized Controlled Period, over which endpoints were assessed. After completion of the Randomized Controlled Period (the end of Week 16), all subjects continue into a 32-week Open-Label Study Drug Period in which all subjects receive twice-weekly doses of Study Drug (1,080 mg). During this period, subjects return to the clinical site on Weeks 17, 18, 20, 22 and 24 and every 4 weeks, thereafter, until Week 48 for efficacy and safety assessments.

[3] = tested on: patients with PNH; experiment: PEGASUS post hoc hematologic response categorization; conditions: 16 weeks
Text: Complete response: no transfusions required, stable Hb in the normal range, and no evidence of hemolysis (i.e., LDH ≤1.5× upper limit of normal [ULN], ARC ≤150,000 /µL). Major response: no transfusion, normal Hb, but with evidence of hemolysis (LDH >1.5×ULN and/or ARC >150,000 /µL). Good response: no transfusion, but with chronic mild anemia or evidence of hemolysis. Partial response: chronic moderate anemia and/or occasional transfusions (<3 units/6 months). Minor response: regular transfusions required (3-6 units/6 months). No response: regular and frequent transfusions required (>6 units/6 months).

[4] = change from baseline at week 16, ITT
[5] = change from baseline at week 16, ITT, listed as Pegcetacoplan
[6] = week 16, ITT, negative = improvement

Question: How did the “Appetite loss, Difference (95% CI) in LS mean, pegcetacoplan vs eculizumab” value [1, 4] turn out when “Poly(oxy-1,2-ethanediyl), α-hydro-ω-hydroxy-, 15,15ʹ -diester with N-acetyl-L-isoleucyl-L-cysteinyl-L-valyl-1-methyl-L-tryptophyl-L-glutaminyl-L-α-aspartyl-L-tryptophylglycyl-L-alanyl-L-histidyl-L-arginyl-L-cysteinyl-L-threonyl-2-[2-(2-aminoethoxy)ethoxy]acetyl-N^6-carboxy-L-lysinamide cyclic (2-->12)-(disulfide) [pegcetacoplan]” was run?
Answer: The value was -8.0 (-23.2, 7.3).

Question: What about the “Cognitive functioning, Difference (95% CI) in LS mean, pegcetacoplan vs eculizumab” value [1, 4] of the same substance?
Answer: The value was 9.6 (-4.5, 23.6).

Question: What about the “Constipation, Difference (95% CI) in LS mean, pegcetacoplan vs eculizumab” value [1, 4] of the same substance?
Answer: Its value is 1.8 (-15.7, 19.3).

Question: And the “Diarrhea, Difference (95% CI) in LS mean, pegcetacoplan vs eculizumab” value [1, 4]?
Answer: Its value is -1.4 (-19.3, 16.5).

Question: And the “Dyspnea, Difference (95% CI) in LS mean, pegcetacoplan vs eculizumab” value [1, 4]?
Answer: The value was -14.6.

Question: And the “Emotional functioning, Difference (95% CI) in LS mean, pegcetacoplan vs eculizumab” value [1, 4]?
Answer: The value was 4.1 (-11.6, 19.8).

Question: And the “Fatigue symptom scale, Difference (95% CI) in LS mean, pegcetacoplan vs eculizumab” value [1, 4]?
Answer: Its value is -20.7.

Question: And the “Financial difficulties, Difference (95% CI) in LS mean, pegcetacoplan vs eculizumab” value [1, 4]?
Answer: Its value is -7.4 (-21.8, 7.0).

Question: What about the “Global Health Status/QoL, Difference (95% CI) in LS mean, pegcetacoplan vs eculizumab” value [1, 4] of the same substance?
Answer: The value was 18.6 (0.1, 37.1).

Question: What about the “Insomnia, Difference (95% CI) in LS mean, pegcetacoplan vs eculizumab” value [1, 4] of the same substance?
Answer: The value was 0.3 (-15.7, 16.3).

Question: What about the “Nausea and vomiting, Difference (95% CI) in LS mean, pegcetacoplan vs eculizumab” value [1, 4] of the same substance?
Answer: Its value is -0.0 (-8.4, 8.4).

Question: And the “Pain, Difference (95% CI) in LS mean, pegcetacoplan vs eculizumab” value [1, 4]?
Answer: The value was -2.8 (-20.4, 14.9).

Question: What about the “Physical functioning, Difference (95% CI) in LS mean, pegcetacoplan vs eculizumab” value [1, 4] of the same substance?
Answer: The value was 12.9 (4.9, 20.9).

Question: And the “Role functioning, Difference (95% CI) in LS mean, pegcetacoplan vs eculizumab” value [1, 4]?
Answer: The value was 24.4 (8.8, 40.0).

Question: And the “Social functioning, Difference (95% CI) in LS mean, pegcetacoplan vs eculizumab” value [1, 4]?
Answer: The value was 11.3 (-2.4, 24.9).

Question: And the “LASA score, Difference (95% CI) in LS mean, pegcetacoplan vs eculizumab” value ([1]; change from baseline at week 16, ITT, censored for transfusion)?
Answer: The value was 59.10.

Question: And the “LASA score, Difference (95% CI) in LS mean, pegcetacoplan vs eculizumab” value ([1]; change from baseline at week 16, ITT, censored for transfusion, listed as Pegcetacoplan)?
Answer: Its value is 59.1 (16.9, 101.3).

Question: And the “Dyspnea, Difference (95% CI) in LS mean, pegcetacoplan vs eculizumab” value [1, 5]?
Answer: Its value is -14.6 (-29.9, 0.8).

Question: What about the “Fatigue symptom scale, Difference (95% CI) in LS mean, pegcetacoplan vs eculizumab” value [1, 5] of the same substance?
Answer: The value was -20.7 (-35.3, -6.2).

Question: And the “EORTC QLQ-C30 Cognitive functioning, LS mean (SE) change from baseline” value ([1]; week 16, ITT)?
Answer: The value was 5.8 (3.3).

Question: What about the “EORTC QLQ-C30 Emotional functioning, LS mean (SE) change from baseline” value ([1]; week 16, ITT) of the same substance?
Answer: Its value is 8.0 (3.4).

Question: And the “EORTC QLQ-C30 Global Health Status/QoL, LS mean (SE) change from baseline” value ([1]; week 16, ITT)?
Answer: Its value is 15.9 (3.6).

Question: And the “EORTC QLQ-C30 Physical functioning, LS mean (SE) change from baseline” value ([1]; week 16, ITT)?
Answer: The value was 16.9 (2.1).

Question: What about the “EORTC QLQ-C30 Role functioning, LS mean (SE) change from baseline” value ([1]; week 16, ITT) of the same substance?
Answer: Its value is 15.4 (3.9).

Question: What about the “EORTC QLQ-C30 Social functioning, LS mean (SE) change from baseline” value ([1]; week 16, ITT) of the same substance?
Answer: Its value is 15.1 (2.9).

Question: And the “LASA score, LS mean (SE) change from baseline” value ([1]; week 16, ITT, censored for transfusion)?
Answer: Its value is 49.4 (10.2).

Question: What about the “EORTC QLQ-C30 Appetite loss, LS mean (SE) change from baseline” value [1, 6] of the same substance?
Answer: Its value is -3.8 (3.4).

Question: What about the “EORTC QLQ-C30 Constipation, LS mean (SE) change from baseline” value [1, 6] of the same substance?
Answer: The value was 3.0 (3.2).

Question: And the “EORTC QLQ-C30 Diarrhea, LS mean (SE) change from baseline” value [1, 6]?
Answer: The value was 0.3 (3.7).

Question: What about the “EORTC QLQ-C30 Dyspnea, LS mean (SE) change from baseline” value [1, 6] of the same substance?
Answer: The value was -20.1 (3.5).

Question: What about the “EORTC QLQ-C30 Fatigue symptom scale, LS mean (SE) change from baseline” value [1, 6] of the same substance?
Answer: The value was -22.9 (3.3).

Question: What about the “EORTC QLQ-C30 Financial difficulties, LS mean (SE) change from baseline” value [1, 6] of the same substance?
Answer: The value was -6.8 (3.9).

Question: What about the “EORTC QLQ-C30 Insomnia, LS mean (SE) change from baseline” value [1, 6] of the same substance?
Answer: Its value is -9.2 (4.0).

Question: And the “EORTC QLQ-C30 Nausea and vomiting, LS mean (SE) change from baseline” value [1, 6]?
Answer: The value was -0.3 (1.6).

Question: What about the “EORTC QLQ-C30 Pain, LS mean (SE) change from baseline” value [1, 6] of the same substance?
Answer: The value was -0.7 (4.3).

Question: And the “hemoglobin, mean improvement from baseline” value ([2]; Week 48)?
Answer: Its value is 2.7 g/dL.

Question: And the “patients who remained transfusion free” value ([2]; throughout the 48-week study)?
Answer: Its value is 73%.

Question: And the “hemoglobin, mean increase from baseline as stated in Example 3” value ([2]; week 16)?
Answer: The value was 2.7 g/dL.

Question: And the complete hematologic responses ([3]; ITT)?
Answer: The complete hematologic responses was 39%.

Question: And the good hematologic responses ([3]; ITT)?
Answer: Its good hematologic responses is 31.7%.

Question: And the minor hematologic responses ([3]; ITT)?
Answer: Its minor hematologic responses is 4.9%.

Question: What about the no hematologic response ([3]; ITT) of the same substance?
Answer: Its no hematologic response is 0%.

Question: What about the partial hematologic responses ([3]; ITT) of the same substance?
Answer: The partial hematologic responses was 14.6%.

Question: What about the “patients achieving at least a good hematological response” value ([3]; 29/41 pegcetacoplan, 2/39 eculizumab) of the same substance?
Answer: The value was 70.7%.
